Laboratory results: patent publication US20180237441A1, “Chemical Compounds” (GlaxoSmithKline Intellectual Property (No.2) Limited, priority 2015, published 2018)

What follows are compounds tested against T1, PERK (Homo sapiens, UniProt Q9NZJ5) (assay: PERK enzyme assay (HTRF)). Details: 500 μM ATP; at least one experimental run; read-out: PERK Enzyme (500 μM ATP) IC50.
T1 sequence (Q9NZJ5 30-1116): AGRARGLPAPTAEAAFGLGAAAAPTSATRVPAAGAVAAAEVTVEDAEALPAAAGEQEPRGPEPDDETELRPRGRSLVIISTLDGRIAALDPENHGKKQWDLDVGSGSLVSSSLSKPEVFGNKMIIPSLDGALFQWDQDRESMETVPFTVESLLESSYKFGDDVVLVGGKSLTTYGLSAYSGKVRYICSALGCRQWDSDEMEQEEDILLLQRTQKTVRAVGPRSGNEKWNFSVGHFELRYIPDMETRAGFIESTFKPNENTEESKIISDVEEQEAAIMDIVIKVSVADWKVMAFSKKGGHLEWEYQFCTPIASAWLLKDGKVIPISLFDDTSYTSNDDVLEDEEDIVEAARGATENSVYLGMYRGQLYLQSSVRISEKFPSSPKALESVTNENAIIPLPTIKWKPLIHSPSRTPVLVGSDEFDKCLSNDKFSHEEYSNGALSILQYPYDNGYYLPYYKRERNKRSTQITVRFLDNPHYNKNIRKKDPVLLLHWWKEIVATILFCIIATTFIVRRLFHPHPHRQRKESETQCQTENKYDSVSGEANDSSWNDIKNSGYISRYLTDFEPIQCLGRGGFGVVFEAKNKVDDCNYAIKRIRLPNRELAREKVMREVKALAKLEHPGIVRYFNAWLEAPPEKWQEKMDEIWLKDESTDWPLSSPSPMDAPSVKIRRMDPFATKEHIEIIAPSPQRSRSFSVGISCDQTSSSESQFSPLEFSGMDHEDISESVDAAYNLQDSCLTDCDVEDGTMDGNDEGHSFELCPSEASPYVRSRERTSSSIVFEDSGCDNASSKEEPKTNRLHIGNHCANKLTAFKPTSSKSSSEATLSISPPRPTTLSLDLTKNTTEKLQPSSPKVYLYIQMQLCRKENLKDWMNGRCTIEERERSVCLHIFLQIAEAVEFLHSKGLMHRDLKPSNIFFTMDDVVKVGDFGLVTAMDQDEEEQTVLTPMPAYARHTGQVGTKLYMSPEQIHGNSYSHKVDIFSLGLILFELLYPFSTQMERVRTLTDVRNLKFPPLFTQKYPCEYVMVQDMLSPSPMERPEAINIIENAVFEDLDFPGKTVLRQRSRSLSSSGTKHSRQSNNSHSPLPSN
Format: biochemical
How it was run: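 HTRF read-out after 2 h of EDTA-quenched reactions, detecting phospho-eIF2α with Eu/APC reagents, gave IC50 values. Reaction: 0.75 nM GST-PERK, 30–60 min compound pre-incubation (max 1% DMSO), then 60 min with 40 nM biotin-eIF2α and 500 μM ATP, HEPES pH 7.5 buffer.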

IC50 [nM]	Compound
351	CC(C)n1cc(-c2ccc(N3CC(c4ccc(F)cc4F)N(C)C3=O)cc2F)c2c(N)ncnc21 (stereo not shown) [Example 92, 1-(4-(4-amino-7-isopropyl-7H-pyrrolo[2,3-d]pyrimidin-5-yl)-3-fluorophenyl)-4-(2,4-difluorophenyl)-3-methylimidazolidin-2-one]

Same assay, conditions: PERK Enzyme (500 μM ATP) IC50; at least one experimental run; read-out: PERK Activity

Compound	IC50 [nM]
Cc1nc(N)c2c(-c3ccc(N4CC(c5ccc(F)cc5)N(C)C4=O)cc3F)cn(C)c2n1 (stereo not shown) [Example 69, 1-(4-(4-amino-2,7-dimethyl-7H-pyrrolo[2,3-d]pynmidin-5-yl)-3-fluorophenyl)-4-(4-fluorophenyl)-3-methylimidazolidin-2-one]	< 100
Cc1nc(N)c2c(-c3ccc(N4CC(c5c(F)ccc(F)c5F)N(C)C4=O)cc3F)cn(C)c2n1 (stereo not shown) [Example 72, 1-(4-(4-amino-2,7-dimethyl-7H-pyrrolo[2,3-d]pyrimidin-5-yl)-3-fluorophenyl)-3-methyl-4-(2,3,6-trifluorophenyl)imidazolidin-2-one]	100 to 1000
CN1C(=O)N(c2ccc(-c3cn(C)c4ncnc(N)c34)c(F)c2)CC1c1cccc(OC(F)F)c1 (stereo not shown) [Example 73, 1-(4-(4-amino-7-methyl-7H-pyrrolo[2,3-d]pyrimidin-5-yl)-3-fluorophenyl)-4-(3-(difluoromethoxy)phenyl)-3-methylimidazolidin-2-one]	100 to 1000
Cc1nc(N)c2c(-c3ccc(N4CC(c5ccc(F)c(F)c5)N(C)C4=O)cc3F)cn(C)c2n1 (stereo not shown) [Example 78, 1-(4-(4-amino-2,7-dimethyl-7H-pyrrolo[2,3-d]pyrimidin-5-yl)-3-fluorophenyl)-4-(3,4-difluorophenyl)-3-methylimidazolidin-2-one]	< 100
CN1C(=O)N(c2ccc(-c3cn(CC(F)(F)F)c4ncnc(N)c34)c(F)c2)CC1c1ccc(F)cc1F (stereo not shown) [Example 82, 1-(4-(4-amino-7-(2,2,2-trifluoroethyl)-7H-pyrrolo[2,3-d]pyrimidin-5-yl)-3-fluorophenyl)-4-(2,4-difluorophenyl)-3-methylimidazolidin-2-one]	100 to 1000
CN1C(=O)N(c2ccc(-c3cn(C)c4ncnc(N)c34)c(F)c2)CC1c1cc(F)cc(C(F)(F)F)c1 (stereo not shown) [Example 84, 1-(4-(4-amino-7-methyl-7H-pyrrolo[2,3-d]pyrimidin-5-yl)-3-fluorophenyl)-4-(3-fluoro-5-(trifluoromethyl)phenyl)-3-methylimidazolidin-2-one]	100 to 1000
Cc1nc(N)c2c(-c3ccc(N4CC(c5ccc(F)cc5)N(C)C4=O)cc3F)cn(C3CC3)c2n1 (stereo not shown) [Example 91, 1-(4-(4-amino-7-cyclopropyl-2-methyl-7H-pyrrolo[2,3-d]pyrimidin-5-yl)-3-fluorophenyl)-4-(4-fluorophenyl)-3-methylimidazolidin-2-one]	< 100
Cc1c(-c2ccc(N3CC(c4ccc(F)cc4F)N(C)C3=O)cc2F)c2c(N)ncnc2n1C (stereo not shown) [Example 94, 1-(4-(4-amino-6,7-dimethyl-7H-pyrrolo[2,3-d]pyrimidin-5-yl)-3-fluorophenyl)-4-(2,4-difluorophenyl)-3-methylimidazolidin-2-one]	100 to 1000
CN1C(=O)N(c2ccc(-c3nn(C)c4ncnc(N)c34)c(F)c2)CC1c1ccc(F)cc1F (stereo not shown) [Example 99, 1-(4-(4-amino-1-methyl-1H-pyrazolo[3,4-d]pyrimidin-3-yl)-3-fluorophenyl)-4-(2,4-difluorophenyl)-3-methylimidazolidin-2-one]	< 100
COc1cccc(C2CN(c3ccc(-c4cn(C)c5ncnc(N)c45)c(F)c3)C(=O)N2C)c1 (stereo not shown) [Example 102, 1-(4-(4-amino-7-methyl-7H-pyrrolo[2,3-d]pyrimidin-5-yl)-3-fluorophenyl)-4-(3-methoxyphenyl)-3-methylimidazolidin-2-one]	100 to 1000
Cc1nc(N)c2c(-c3c(F)cc(N4CC(c5ccc(F)cc5F)N(C)C4=O)cc3F)cn(C)c2n1 (stereo not shown) [Example 105, 1-(4-(4-amino-2,7-dimethyl-7H-pyrrolo[2,3-d]pyrimidin-5-yl)-3,5-difluorophenyl)-4-(2,4-difluorophenyl)-3-methylimidazolidin-2-one]	100 to 1000
CN1C(=O)N(c2ccc(-c3cn(C4CC4)c4ncnc(N)c34)c(F)c2)CC1c1ccc(F)cc1F (stereo not shown) [Example 108, 1-(4-(4-amino-7-cyclopropyl-7H-pyrrolo[2,3-d]pyrimidin-5-yl)-3-fluorophenyl)-4-(2,4-difluorophenyl)-3-methylimidazolidin-2-one]	< 100

The remaining lines, values ahead:

IC50 [nM]	Compound
100 to 1000	CN1C(=O)N(c2ccc(-c3cn(C)c4ncnc(N)c34)c(F)c2)CC1c1cccc(F)c1F (stereo not shown) [Example 74, 1-(4-(4-amino-7-methyl-7H-pyrrolo[2,3-d]pyrimidin-5-yl)-3-fluorophenyl)-4-(2,3-difluorophenyl)-3-methylimidazolidin-2-one]
100 to 1000	CCN1C(=O)N(c2ccc(-c3cn(C)c4ncnc(N)c34)c(F)c2)CC1c1cccc(F)c1F (stereo not shown) [Example 75, 1-(4-(4-amino-7-methyl-7H-pyrrolo[2,3-d]pyrimidin-5-yl)-3-fluorophenyl)-4-(2,3-difluorophenyl)-3-ethylimidazolidin-2-one]
< 100	Cn1cc(-c2ccc(N3CC(c4ccc(F)cc4F)N(CC(F)(F)F)C3=O)cc2F)c2c(N)ncnc21 (stereo not shown) [Example 79, 1-(4-(4-amino-7-methyl-7H-pyrrolo[2,3-d]pyrimidin-5-yl)-3-fluorophenyl)-4-(2,4-difluorophenyl)-3-(2,2,2-trifluoroethyl)imidazolidin-2-one]
< 100	CN1C(=O)N(c2ccc(-c3cn(C)c4ncnc(N)c34)c(F)c2)CC1c1c(F)cccc1F (stereo not shown) [Example 81, 1-(4-(4-amino-7-methyl-7H-pyrrolo[2,3-d]pyrimidin-5-yl)-3-fluorophenyl)-4-(2,6-difluorophenyl)-3-methylimidazolidin-2-one]
100 to 1000	CCN1C(=O)N(c2ccc(-c3cn(C)c4ncnc(N)c34)c(F)c2)CC1c1cc(F)cc(C(F)(F)F)c1 (stereo not shown) [Example 85, 1-(4-(4-amino-7-methyl-7H-pyrrolo[2,3-d]pyrimidin-5-yl)-3-fluorophenyl)-3-ethyl-4-(3-fluoro-5-(trifluoromethyl)phenyl)imidazolidin-2-one]
100 to 1000	CC(C)n1cc(-c2ccc(N3CC(c4ccc(F)cc4F)N(C)C3=O)cc2F)c2c(N)ncnc21 (stereo not shown) [Example 92, 1-(4-(4-amino-7-isopropyl-7H-pyrrolo[2,3-d]pyrimidin-5-yl)-3-fluorophenyl)-4-(2,4-difluorophenyl)-3-methylimidazolidin-2-one]
100 to 1000	CCN1C(=O)N(c2ccc(-c3c(C)n(C)c4ncnc(N)c34)c(F)c2)CC1c1ccc(F)cc1F (stereo not shown) [Example 93, 1-(4-(4-amino-6,7-dimethyl-7H-pyrrolo[2,3-d]pyrimidin-5-yl)-3-fluorophenyl)-4-(2,4-difluorophenyl)-3-ethylimidazolidin-2-one]
< 100	CN1C(=O)N(c2ccc(-c3cn(C)c4ncnc(N)c34)c(F)c2)CC1c1ccc(F)c(F)c1 (stereo not shown) [Example 96, 1-(4-(4-amino-7-methyl-7H-pyrrolo[2,3-d]pyrimidin-5-yl)-3-fluorophenyl)-4-(3,4-difluorophenyl)-3-methylimidazolidin-2-one]
< 100	CCN1C(=O)N(c2ccc(-c3cn(C)c4ncnc(N)c34)c(F)c2)CC1c1ccc(F)c(F)c1 (stereo not shown) [Example 97, 1-(4-(4-amino-7-methyl-7H-pyrrolo[2,3-d]pyrimidin-5-yl)-3-fluorophenyl)-4-(3,4-difluorophenyl)-3-ethylimidazolidin-2-one]
100 to 1000	CCN1C(=O)N(c2ccc(-c3nn(C)c4ncnc(N)c34)c(F)c2)CC1c1ccc(F)cc1F (stereo not shown) [Example 98, 1-(4-(4-amino-1-methyl-1H-pyrazolo[3,4-d]pyrimidin-3-yl)-3-fluorophenyl)-4-(2,4-difluorophenyl)-3-ethylimidazolidin-2-one]
100 to 1000	CCN1C(=O)N(c2ccc(-c3cn(C(C)C)c4ncnc(N)c34)c(F)c2)CC1c1cc(F)ccc1F (stereo not shown) [Example 106, 1-(4-(4-amino-7-isopropyl-7H-pyrrolo[2,3-d]pyrimidin-5-yl)-3-fluorophenyl)-4-(2,5-difluorophenyl)-3-ethylimidazolidin-2-one]
< 100	CCN1C(=O)N(c2ccc(-c3cn(C4CC4)c4ncnc(N)c34)c(F)c2)CC1c1ccc(F)cc1F (stereo not shown) [Example 107, 1-(4-(4-amino-7-cyclopropyl-7H-pyrrolo[2,3-d]pyrimidin-5-yl)-3-fluorophenyl)-4-(2,4-difluorophenyl)-3-ethylimidazolidin-2-one]
